The text below walks through data of patent US8563609B2, “Nitro fatty acids - neuroprotection and/or inhibition of cognitive decline” (Nitromega Corp., priority 2010, dated 2013).

The conditions of data set [1]: 900 mgs per day oral, six months; cited from earlier work.
The subject of data set [2] is Abeta-mediated changes in membrane trafficking. The data set can be described thus: exocytosis (formazan membrane trafficking) assay with Abeta oligomers in mature primary neuronal cultures. The class given is cell-based, rat. The following applies: for amyloid beta (Abeta) in intracellular vesicles (figure legend): exocytosis assay, mature primary neuronal cultures grown for 3 weeks in vitro. The text has this: Abeta oligomer preparations: Human amyloid peptide 1-42 was obtained from a variety of commercial sources, with lot-choice contingent upon quality control analysis. Abeta 1-42 oligomers made according to published methods or isolated from human brain tissue served as positive controls. Toxicity was monitored in each image-based assay via quantification of nuclear morphology visualized with the DNA binding dye DAPI. Nuclei that were fragmented were considered to be in late stage apoptosis. Peptide lots producing unusual peptide size ranges or significant toxicity at standard concentrations on neurons were rejected.
Image Processing: Images are captured and analyzed with the Cellomics VTI automated microscope platform. For statistical analysis, a Tukey-Kramer pair-wise comparison with unequal variance is used.
A primary neuron-based functional screening assay to detect small molecule Abeta oligomer blockers: Primary rat neurons grown for at least 3 weeks in vitro were chosen as the basis for this screening assay. […] More complex systems such as acute or organotypic brain slices are very useful but not amenable to high throughput screening. […] For this reason, primary neuronal cultures were chosen because of their ability to be used in high throughput screens and fidelity to what occurs in vivo.
Measuring membrane trafficking rate changes induced by oligomers via formazan morphological shifts has been used in cell lines to discover Abeta oligomer-blocking drugs.
Yellow tetrazolium salts are endocytosed by cells and reduced to insoluble purple formazan in the endosomal pathway. The level of purple formazan is a reflection of the number of actively metabolizing cells in culture, and reduction in the amount of formazan was taken as a measure of cell death or metabolic toxicity in culture as well as an indicator of membrane trafficking
The exocytosis assay was adapted for use with mature primary neuronal cultures grown for 3 weeks in vitro.

In another data set the test system is motor neurons. The data set can be described thus: motor neuron astrocyte coculture, in vitro model of ALS (SOD G93A astrocytes). The class given is cell-based, mice. As for the experimental part: Recent studies have shown that nitro-arachidonic acid can have protective effects compared with native arachidonic acid in an in vitro model of ALS. This model is based on astrocyte-induced motoneuron toxicity induced by a mutation in CuZn SOD (SOD1).
Briefly, motor neuron astrocytes cocultures were made.
FIG. 2 illustrates the results of these experiments. Native arachidonic acid (AA) at 3 μM and 5 μM had no effect on the motor neuron survival compared with control.

[3] abbreviates: primary neuronal cultures grown for 3 weeks in vitro, Abeta oligomers.

`CC/C=C\C/C=C\C/C=C\C/C=C\C/C=C\C/C=C\CCC(=O)O` [DHA, docosahexaenoic acid]: the tolerability result in data set [1] is “well-tolerated”.

For the compound `C[C@]12N[C@H](Cc3ccccc31)c1ccccc12` [MK-801], the “block of Abeta oligomer effects on membrane trafficking (active / not active)” value (“block … (active / not active)” for short) in data set [2] (setting [3]) is reported as “none were active”.

For `CCCCC/C=C\C/C=C\C/C=C\C/C=C\CCCC(=O)O` [arachidonic acid], the “motor neuron survival compared with control / mutant astrocyte induced motor neuron death” value with motor neurons (3 μM) and in the data set on motor neurons (5 μM) was “no effect” throughout.

In the case of `C[N+](C)(C)CCCCCC[N+](C)(C)C` [hexamethonium bromide], the “block … (active / not active)” value in data set [2] (setting [3]) is “none were active”.

In the case of `CCCCCCCC/C=C\CCCCCCCC(=O)O` [oleic acid], the concentration for a half-maximal effect (EC50) in data set [2] (Rattus norvegicus, 504 h, primary neuronal cultures grown for 3 weeks in vitro, Abeta oligomers, read-out: EC50, inhibition of oligomer effects on membrane trafficking) turned out to be 2.08 µM. Also, the “amyloid beta (Abeta) in intracellular vesicles (figure legend)” value in data set [2] was “dose-dependent decrease”.

With `O[C@H]1[C@H](O)[C@@H](O)[C@H](O)[C@@H](O)[C@@H]1O` [scyllo-inositol], the “block … (active / not active)” value in data set [2] (setting [3]) is given as “none were active”.

Take Nitro-oleic acid: the “amyloid beta (Abeta) in intracellular vesicles (figure legend)” value in data set [2] is recorded as “dose-dependent decrease”. Besides, in data set [2] (setting [3]), the “block … (active / not active)” value is “little statistically relevant effect on membrane trafficking”.

nitro-arachidonic acid: the “motor neuron survival compared with control / mutant astrocyte induced motor neuron death” value with motor neurons (3 μM) and in the data set with motor neurons (5 μM) was “inhibited mutant astrocyte induced motor neuron death” each time. Besides, the “motorneuron death caused by co-culture with astrocytes containing a mutation in SOD1 (SOD G93A)” value with motor neurons (incubated for 24 hours with wild type motor neurons) is on record as “limited motorneuron death”.

The term EC50 denotes the midpoint of the concentration-response curve.
